Test: Human HepG2 cell viability assay in 384 well format
Assay type: toxicity, cell-based
Set-up: dose 125 nL, time 70.5 hour; cytotoxicity at 70.5 h: concentration not given beside the values
Details: HepG2 cells, read-out: Inhibition

| SMILES | cytotoxicity at 70.5 h [%] |
| --- | --- |
| O=C(c1ncccn1)N1C[C@@H]2CC[C@H](Oc3cccc(F)c3)[C@@H]2C1 | -6.95 |
| O=C(c1cccnn1)N1C[C@@H]2CC[C@H](Oc3cccc(F)c3)[C@@H]2C1 | 14.9 |
| NCc1cnn(-c2ccccc2C(=O)NCCc2ccncc2)c1 | -7.18 |
| Cc1noc(C)c1-c1cncc(C2CCCN2Cc2c[nH]cn2)n1 (centres undefined) | -6.81 |
| Cc1noc(C)c1-c1cncc(C2CCCN2Cc2ncc[nH]2)n1 (centres undefined) | 16.2 |
| NCCn1nc(C2CCN(C(=O)Cc3ccccc3)C2)c2nccnc21 (centres undefined) | -5.36 |
| CCCn1ncc(CN2C[C@@H]3CCCN3C[C@H]2CCSC)c1C | -1.67 |
| COCC(=O)N1CCC(c2cncc(-c3cccc(F)c3)n2)CC1 | -7.23 |
| CC(=O)N1CCCN(c2cc(C3CN(C)CCO3)nc(C)n2)CC1 (centres undefined) | 12 |
| OCCN1CCCC(c2nccnc2Oc2ccc(F)cc2)C1 (centres undefined) | -2.84 |
| Cc1nc(Nc2cnccn2)cc(C2CCCN2C2CCOCC2)n1 (centres undefined) | -5.63 |
| Cc1c(C(=O)N2CC(Cc3nccc4ccn(C)c34)C2)cnn1C | -6.29 |
| Cc1nc(C2CCCN2C(=O)CC2CCCC2)ncc1C(N)=O (centres undefined) | -4.71 |
| Cc1c[nH]nc1C1CCN(S(=O)(=O)N(C)C)C1 (centres undefined) | -8.85 |
| CCCn1ccnc1CN1CCN(C2CCOCC2)CC(C(N)=O)C1 (centres undefined) | -10.4 |
| CNc1cc(C)nc(C2CN(Cc3ccc(Cl)cn3)CCO2)c1 (centres undefined) | -5.55 |
| COC(=O)c1cc(NC(=O)CCc2cscn2)ccc1C | -5.71 |
| Cc1ccc(NC(=O)N2CCOC(C)(c3cnn(C)c3)C2)c(C)c1 (centres undefined) | -3.64 |
| Cn1cc(C2(C)CN(C(=O)Nc3ccccc3F)CCO2)cn1 (centres undefined) | -5.13 |
| Cc1nc(CNC2(C(=O)OC(C)(C)C)CCCC2)oc1C | -8.39 |
| O=C(c1cnc(-c2ccccc2)s1)N1CCOC2(CCCC2)C1 | -3.97 |

| SMILES | cytotoxicity at 70.5 h [%] |
| --- | --- |
| N#Cc1ccc(F)c(CN2CCCC2Cn2cncn2)c1 (centres undefined) | -5.36 |
| CC(=O)N1CCN(CCCSCc2ccccc2)CC1 | 6.76 |
| CS(=O)(=O)N1CCCN(CCCSCc2ccccc2)CC1 | -8.27 |
| CN(Cc1cc(F)cc2cccnc12)CC1CCN(CCO)CC1 | -8.39 |
| CC(C)OCCCNC(=O)CN1CCN(c2nccs2)C(C)C1 (centres undefined) | 35.5 |
| CCc1nc2n(n1)CC(NCC1=Cc3ccc(OC)cc3OC1)CC2 (centres undefined) | 2.24 |
| Cc1nnc(CN(C)CC(=O)NCCc2ccc(F)cc2)n1C | -5.46 |
| CCN(CC)CCCNC(=O)Nc1c(C)cccc1C(C)C | -4.07 |
| CN(Cc1noc(C2CC2)n1)C1CCN(CCn2cccn2)C1 (centres undefined) | -5.95 |
| CCC1(CC)CC(=O)N(CC(O)c2cccc(Br)c2)C1=O (centres undefined) | 28.9 |
| Cc1cc(CN(C)C(=O)Nc2ccccc2C)no1 | -4.53 |
| OC(CNCc1nnc2ccccn12)c1ccc2c(c1)OCCCO2 (centres undefined) | -8.23 |
| CC(CN1CCOC1=O)NC(=O)c1cccc(Cl)c1Cl (centres undefined) | -4.07 |
| CCC1(CC)CC(=O)N(CC(O)c2ccc(F)cc2)C1=O (centres undefined) | -9.84 |
| Cc1ccc(C(CNC(=O)c2cc(=O)c3ccccc3[nH]2)N(C)C)cc1 (centres undefined) | -4.48 |
| CC(CN1CCOC1=O)NC(=O)c1cccc(C#N)c1 (centres undefined) | -3.83 |
| COCC(C)NC(=O)N1CCN(S(C)(=O)=O)CC1 (centres undefined) | -2.46 |
| CCC1(CC)CC(=O)N(CC(O)c2cccc(F)c2)C1=O (centres undefined) | -3.42 |
| O=S(=O)(c1ccccc1N1CC(n2cccn2)C1)C(F)(F)F | 1.67 |
| CC(C)c1nnc2n1CCN(Cc1cc(Cl)c3c(c1)OCCO3)C2 | -4.04 |
| CCCOc1ccc2c(c1)OCC(CNC1CCc3ncnn3C1)=C2 (centres undefined) | -6.97 |

| SMILES | cytotoxicity at 70.5 h [%] |
| --- | --- |
| O=C(Nc1cccc(N2CCOCC2)c1)N[C@H](CO)c1ccccc1 | -1.11 |
| CC(CN1CCOCC1)NC(=O)N1CCCC1 (centres undefined) | -3.6 |
| Cc1ccc(CNC(=O)c2ccc(=O)n(C)n2)c(OC2CCCC2)c1 | -5.94 |
| Cn1nnnc1SCC1(O)CCCCC1 | -5.84 |
| CN(Cc1cc(Br)cs1)Cc1nnsc1Cl | -8.26 |
| CN1CCCN(c2ccc(F)cc2CNC(=O)c2cccnc2)CC1 | 29.2 |
| O=S(=O)(NCCCn1cncn1)c1ccc2c(c1)CCCC2 | -5.74 |
| Cc1cc(C)n(CCN2CCC(N(C)Cc3noc(C4CC4)n3)C2)n1 (centres undefined) | -4.52 |
| CCNC(=O)c1ccc(NC(=O)N(C)Cc2cc(C)on2)c(C)c1 | -5.12 |
| O=S(=O)(NCCCn1cncn1)c1ccc2c(c1)OCCCO2 | -6.28 |
| C1=C(CNC2CCc3ncnn3C2)COc2ccccc21 (centres undefined) | -9.66 |
| CC(C)c1nnc2n1CCN(Cc1cc(Cl)c3c(c1)OCO3)C2 | -1.27 |
| CCOCCN1CCN(CC(=O)NC2(C#N)CCCC2)CC1C (centres undefined) | 10.7 |
| Cc1nc(C(C)(C)NCc2ncc(C3CC3)o2)sc1C | 2.05 |
| CCN(CC)CCn1cc(NC(=O)CNc2ccccc2OC)cn1 | 7.01 |
| CNS(=O)(=O)c1cc(C(=O)NC2COc3ccccc3C2)ccc1OC (centres undefined) | 6.83 |
| CC(C)(NCc1ccc(C#N)cc1)c1ccc2c(c1)OCO2 | 12.3 |
| CC(C)c1ccc(OCCC(=O)NCCC(=O)N(C)C)cc1 | -8.34 |
| CC(C)c1ccc(OCCC(=O)N(C)CC(N)=O)cc1 | -12.9 |
| Cc1nc(-c2cc(C(=O)O)co2)cs1 | -9.39 |
| Cn1cnc2c1CCN(CC(=O)NC1CCCCNC1=O)C2 (centres undefined) | 15.2 |

| SMILES | cytotoxicity at 70.5 h [%] |
| --- | --- |
| Cc1occc1C(=O)N1CCCN(Cc2ncc(Cl)n2C)CC1 | -7.84 |
| Cc1cnn(CC(C)NCc2cc(=O)n3cc(C)ccc3n2)c1 (centres undefined) | -6.57 |
| CC(NC(=O)NC1CCN(CC2CCCC2)CC1)c1nccs1 (centres undefined) | -6.39 |
| COCCN(C(=O)c1ccsc1)c1ccc(C#N)cc1 | -3.69 |
| Cc1nc(-c2cc(C(=O)NC(C)(C(=O)O)C(C)C)co2)cs1 (centres undefined) | -7.3 |
| CC(C)c1ccc(OCCC(=O)N(C)C)cc1 | 12.7 |
| O=C(NCCSC1CCCC1)c1cc(Cl)ccn1 | 22.7 |
| O=C(NCCSC1CCCC1)c1cnccn1 | 29.4 |
| CC1COCCN1C(=O)c1ccc(=O)n(CCOc2ccccc2)n1 (centres undefined) | -5.11 |
| COc1ccc(C2CCCN2c2ccc(C#N)cn2)c(OC)c1 (centres undefined) | 4.11 |
| CCC1CCCCN1C(=O)CCn1cnc2sccc2c1=O (centres undefined) | -11.1 |
| CNC(=O)C1CCCCN1C(=O)CCn1cnc2sccc2c1=O (centres undefined) | -1.4 |
| COc1ccc(C2CCCN2c2cnccn2)c(OC)c1 (centres undefined) | -2.67 |
| Cc1nccn1-c1cc(CNS(=O)(=O)N2CCCC(C)C2)ccn1 (centres undefined) | 18 |
| O=C(NCC(F)(F)F)c1nnn(-c2ccccc2)c1C(F)(F)F | -4.56 |
| COC(=O)c1ccc(N2CCN(C(=O)C(C)C)C(C)C2)cc1 (centres undefined) | 26.6 |
| Cc1nc(C2(O)CCCNCC2)sc1CCOc1ccc(F)c(F)c1 (centres undefined) | -4.26 |
| Nc1cnn(CC(=O)N2CCCCC2)c1 | 3.95 |
| CC(C)(C)c1n[nH]cc1CNCC1CCN(CC(F)(F)F)C1 (centres undefined) | -6.93 |
| CC(C)(C)c1n[nH]cc1CNCC1CCN(C2CC2)C1 (centres undefined) | -6.24 |
| COC(=O)c1ccc(CN[C@@H]2COC[C@H]2Cc2cc(C)no2)cc1 | -4.83 |
